Experimental data as given in article PMC12475274, “Harnessing indole scaffolds to identify small-molecule IRE1α inhibitors modulating XBP1 mRNA splicing” (Nature Communications, 2025).
pIC50: −log10 of the molar value. “Also recorded” adds a separate entry of the source. Where two headings read alike, the source gives them in different places.

Assays:
[1] = target: T1, p-IRE1α dimerization and oligomerization (Homo sapiens, UniProt O75460); assay: DSS cross-linking assay with mass photometry; settings: 100 μM compound, DSS crosslinking
T1 construct: Human IRE1α kinase and RNase domain (residues 547–977) was subcloned into pLIB plasmid; His tag (with TEV cleavage site) (N, cleaved yes); made in house; host or cells: Sf9 insect cells, baculovirus (Bac-to-Bac)
Protocol: Phosphorylated IRE1α (p-IRE1α) and compounds were incubated 30 min at room temperature, with a final concentration of 2 μM p-IRE1α and 100 μM of the indicated compound, in a buffer containing 20 mM HEPES, pH 7.5, 50 mM KOAc, 1 mM MgOAc2, 1 mM DTT, 0.05% v/v TritonX-100, in a total reaction volume of 20 μL. After incubation, DSS (disuccinimidyl suberate, Thermo Fisher, A39267) was added to the reaction at a final concentration of 250 μM to induce crosslinking at room temperature for 1 h. Tris (pH 7.5) was added to a final concentration of 50 mM to stop the reaction. Samples were further measured with a mass photometry instrument (Refeyn Ltd). The PBS buffer was used for the mass photometry measurement. The instrument was calibrated with BSA and TG protein mixture in PBS. Samples were diluted to a protein concentration of 100 nM with buffer before measurement. Then, 18 μL PBS buffer was added to the center of the gasket on the coverslips to check and find the focus. Afterward, 2 μL of the diluted sample was added, mixed, and measured. Data were analyzed using Discover MP software, for each sample, results from 3 individual measurements were merged.

[2] = test system: XBP1s protein in A549 cells; assay: Western blot of XBP1s protein level, A549; type: cell-based, human; settings: 2 h compound, then 1 μg/mL tunicamycin 4 h
Protocol: (§1) A549 cells and MDA-MB-231 Cells were harvested and seeded into 6-well plates with a density of 8 × 10^5 cells per well and cultured overnight. […]. Protein concentrations were measured using a BCA protein assay kit (Thermo Scientific, 23227) and all samples were diluted to the same protein concentration. Each sample with 40 μg of total protein was loaded onto a 4–15% MP stain-free gel (Bio-Rad, 4568085) and separated in tris-glycine-SDS running buffer. The proteins were transferred onto a 0.45 μm PVDF membrane (Bio-Rad, 1704274) using the Trans-Blot Turbo Transfer System with the preprogrammed standard SD protocol (up to 1.0 A; 25 V; 30 min). Membranes were blocked with 5% skim milk (Roth, T145.2) in PBST buffer, then incubated with primary antibody IRE1α (Cell Signaling Technology, #3294 s, 1:1000), XBP1s (Cell Signaling Technology, #12782 s, 1:1000) GAPDH (Proteintech, 10494-1-AP, 1:6000) overnight at 4 °C with shaking. After incubation, membranes were washed with PBST and incubated with the Goat Anti-Rabbit (Proteintech, SA00001-2, 1:6000) antibody at room temperature for 1 h. After washing with PBST, the membranes were visualized using Amersham ECL Prime Western Blotting Detection Kit (Cytiva, RPN2232) and imaged with a ChemiDoc MP imaging system (Bio-Rad).

[3] = test system: XBP1s protein in MDA-MB-231 cells; assay: Western blot of XBP1s protein level, MDA-MB-231; type: cell-based, human
Protocol: as §1

[4] = test system: IRE1α protein in MDA-MB-231 cells; assay: Western blot of IRE1α protein level, MDA-MB-231; type: cell-based, human
Protocol: as §1

[5] = target: T2, p-IRE1α (Homo sapiens, UniProt O75460); assay: Gel-based RNA-cleavage assay; type: biochemical
T2 construct: Human IRE1α kinase and RNase domain (residues 547–977) was subcloned into pLIB plasmid; His tag (with TEV cleavage site) (N, cleaved yes); made in house; host or cells: Sf9 insect cells, baculovirus (Bac-to-Bac)
Protocol: Purified p-IRE1α with a final concentration of 10 nM was preincubated with the indicated compounds for 30 min at room temperature, then 50 nM FAM and BHQ-labeled XBP1 substrate were added to the reaction. The reaction was further incubated for 45 min at room temperature and then mixed with 6× TBE loading dye (45% H2O, 40 % glycerol, 15% 10× TBE, 0.1% bromphenol blue). 5 μL sample was loaded to 15% pre-runed urea-PAGE, and the gel was run in pre-warmed (~60 °C) 1× TBE buffer buffer in the dark. The gel fluorescence was detected and imaged using the ChemiDoc MP imaging system (Bio-Rad).

[6] = target: IRE1α (ERN1) (Homo sapiens, UniProt O75460); assay: LanthaScreen Eu kinase binding assay, IRE1α; settings: for inhibition at 5.56 µM: Conc. 5560 nM; for inhibition at 5.56 µM / inhibition at 16.7 µM / inhibition at 50 µM: duplicates; for inhibition at 16.7 µM: Conc. 16700 nM; for inhibition at 50 µM: Conc. 50000 nM
Protocol: LanthaScreen^TM Eu kinase binding assays were conducted by SelectScreen Kinase Profiling Services (Thermo Fisher) using Alexa Fluor conjugated kinase tracer, tagged kinase protein, and Eu-labeled anti-tag antibody. The binding of the tracer to the kinase will form the tracer-kinase complex, resulting in a high FRET signal with the Eu-labeled anti-tag antibody. Displacement of the tracer by a kinase inhibitor led to a decreased FRET signal. […] Buffer A containing 50 mM HEPES pH 7.5, 0.01% BRIJ-35, 10 mM MgCl2, and 1 mM EGTA was used.
Kinase profiling was conducted by the SelectScreen Kinase Profiling Services (Thermo Fisher), using Z′-LYTE, Adapta, or LanthaScreen Eu Kinase Binding Assay for different kinases. The kinome phylogenetic tree was generated using the KinMap web portal.

[7] = test system: HT-29 cells; assay: Cell viability assay (CCK-8), HT-29; type: cell-based, human; settings: HT-29; for inhibition at 50 µM: Homo sapiens, read-out: antiproliferation, inhibition at highest tested concentration
Protocol: Cells were collected and seeded into 96-well plates at a density of 2000–4000 cells per well and cultured overnight to allow cells to adhere. After adherence, cells were treated with the indicated compounds for 72 h. Then 20 μL CCK-8 solution (Vazyme, A311) was added into each well and incubated at 37 °C for 2–4 h. Absorbance was detected at a wavelength of 450 nm using a TECAN plate reader. Cell viability was calculated with the equation: Cell viability (%) = 100(Absorbance of treated cell - Absorbance of Blank control)/ (Absorbance of DMSO-treated cells - Absorbance of Blank control); Blank control: medium and CCK-8 solution, no cells.

[8] = read-out: IRE1a Kinase Displacement(%)
[9] = IRE1α kinase domain, read-out: IC50 (kinase binding), LanthaScreen Eu kinase binding

Sequence of IRE1α (ERN1) (O75460 19-977): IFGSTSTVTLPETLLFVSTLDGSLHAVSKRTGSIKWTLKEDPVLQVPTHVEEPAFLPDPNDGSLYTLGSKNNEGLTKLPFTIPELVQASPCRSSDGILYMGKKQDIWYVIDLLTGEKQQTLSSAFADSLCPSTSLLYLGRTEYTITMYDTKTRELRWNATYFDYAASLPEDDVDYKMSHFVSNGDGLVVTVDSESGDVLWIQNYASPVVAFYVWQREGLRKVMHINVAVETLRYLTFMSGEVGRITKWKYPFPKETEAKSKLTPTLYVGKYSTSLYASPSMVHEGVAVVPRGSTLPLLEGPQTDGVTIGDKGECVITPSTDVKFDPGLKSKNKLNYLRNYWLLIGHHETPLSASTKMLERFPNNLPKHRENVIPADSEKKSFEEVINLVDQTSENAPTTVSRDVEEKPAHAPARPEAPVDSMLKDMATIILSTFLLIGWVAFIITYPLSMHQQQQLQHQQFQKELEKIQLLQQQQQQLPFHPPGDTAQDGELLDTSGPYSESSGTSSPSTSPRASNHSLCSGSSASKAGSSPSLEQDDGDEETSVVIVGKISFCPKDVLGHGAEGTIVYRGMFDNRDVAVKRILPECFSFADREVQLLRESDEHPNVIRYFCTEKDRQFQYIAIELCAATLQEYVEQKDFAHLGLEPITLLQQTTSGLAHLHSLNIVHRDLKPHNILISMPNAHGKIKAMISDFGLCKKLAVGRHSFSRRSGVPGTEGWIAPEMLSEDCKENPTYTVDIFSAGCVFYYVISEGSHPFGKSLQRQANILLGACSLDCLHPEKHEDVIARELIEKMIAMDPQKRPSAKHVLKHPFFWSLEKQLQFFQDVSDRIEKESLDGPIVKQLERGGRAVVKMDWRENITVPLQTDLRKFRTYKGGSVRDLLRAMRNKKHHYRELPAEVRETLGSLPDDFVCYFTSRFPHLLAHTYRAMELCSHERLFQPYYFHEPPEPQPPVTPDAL
T1 sequence (O75460 547-977): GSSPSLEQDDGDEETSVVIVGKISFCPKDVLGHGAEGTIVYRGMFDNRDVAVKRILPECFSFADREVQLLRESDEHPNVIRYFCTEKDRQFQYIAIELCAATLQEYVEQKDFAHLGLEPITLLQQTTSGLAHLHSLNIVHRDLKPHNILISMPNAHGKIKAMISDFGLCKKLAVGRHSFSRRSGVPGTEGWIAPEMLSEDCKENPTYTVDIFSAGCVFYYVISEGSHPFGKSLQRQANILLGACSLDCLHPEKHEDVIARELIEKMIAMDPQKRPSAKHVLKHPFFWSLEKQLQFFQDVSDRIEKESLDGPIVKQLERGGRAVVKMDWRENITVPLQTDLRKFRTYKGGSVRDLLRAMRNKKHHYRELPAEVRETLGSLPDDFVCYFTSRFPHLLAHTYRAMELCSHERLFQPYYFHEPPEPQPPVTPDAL
T2 sequence (O75460 547-977): as above

Compound | effect on p-IRE1α dimerization/oligomerization [1] | effect on ER stress-induced XBP1s protein [2] | effect on ER stress-induced XBP1s protein [3] | effect on IRE1α protein level [4] | inhibition of p-IRE1α RNase activity in gel-based cleavage assay [5] | inhibition at 5.56 µM [6, 8] | inhibition at 16.7 µM [6, 8] | inhibition at 50 µM [6, 8] | pIC50 [6, 9] | inhibition at 5 µM ([6]; kinase profiling, ERN1, LanthaScreen Binding, IA107 at 5 μM) | cytotoxicity [7] | inhibition at 50 µM [7] | binding to IRE1α kinase domain in LanthaScreen assay [6] | inhibition at 0.0686 µM ([6]; 0.0686 μM, read-out: IRE1a Kinase Displacement(%)) | binding to IRE1α kinase domain in LanthaScreen assay ([6]; listed as IADP1) | pIC50 ([6]; read-out: IC50 (Kinase), LanthaScreen kinase binding/displacement)
CCOC(=O)Nc1cccc2c(Oc3ncccc3-c3ccnc(N[C@H]4CCCNC4)n3)c(C)ccc12 [Compound G1749, reference compound] | inhibited the dimerization; also recorded: interfere with the dimerization | partially inhibited | partially inhibited | did not affect | – | – | – | – | – | – | – | – | – | – | – | –
COc1ccc2c(c1)c(CCC(=O)O)c(C)n2C(=O)c1ccc(Cl)cc1 [IA01] | – | – | – | – | concentration-dependently inhibited | 50% | 63% | 70% | 5.61 | – | – | – | – | – | – | –
COc1ccc2c(c1)c(CCC(=O)O)c(C)n2C(=O)c1ccccc1 [IA64] | – | – | – | – | inhibited p-IRE1α activity; also recorded: concentration-dependently inhibited | 104% | 98% | 109% | 5.96 | – | – | – | – | – | – | –
Cc1c(CCC(=O)O)c2cc(Br)ccc2n1C(=O)c1ccccc1 [IA107] | did not inhibit the dimerization and oligomerization; also recorded: did not affect the dimerization and oligomerization | – | – | – | concentration-dependently inhibited | 88% | 94% | 96% | 6.11 | 91% | did not show cytotoxicity | < 30% | – | – | – | –
CCOC(=O)CCc1c(C)n(C(=O)c2ccccc2)c2ccc(Br)cc12 [IAPD1] | – | inhibited the XPB1s protein level | inhibited the XPB1s protein level | did not affect | – | – | – | – | – | – | did not show cytotoxicity | < 30% | did not show any detectable activity | 11.5% | did not show any detectable | < 4.30
Cc1ccc2c(NS(=O)(=O)c3ccccc3Cl)cccc2c1Oc1ncccc1-c1ccnc(N[C@H]2CCCNC2)n1 [KIRA8] | interfere with the dimerization; also recorded: inhibited dimerization | – | – | did not affect | – | – | – | – | – | – | – | – | – | – | – | –
